Results from DBAASP.
≈ marks a conversion by molar mass, not a printed value.

How the values were obtained:
Experiment in all cases: ≥ marks a high value that may be exact or a test limit, other limits are often not marked, values filed in µg/mL are converted to µM
Staphylococcus aureus = test system: Staphylococcus aureus
Pseudomonas aeruginosa = test system: Pseudomonas aeruginosa
Escherichia coli = test system: Escherichia coli
Candida albicans = test system: Candida albicans
[1] = test system: Klebsiella pneumoniae ATCC 700603
[2] = test system: Escherichia coli ATCC 25922
[3] = test system: Staphylococcus aureus ATCC 25923
[4] = test system: Pseudomonas aeruginosa ATCC 9027
Acinetobacter baumannii = test system: Acinetobacter baumannii
[5] = test system: Pseudomonas aeruginosa ATCC 27853
[6] = test system: Acinetobacter baumannii ATCC 19606

SMILES	MIC (Staphylococcus aureus)	MIC (Pseudomonas aeruginosa)	MIC (Escherichia coli)	MIC (Candida albicans)	MIC [2]	MIC [3]	MIC (Acinetobacter baumannii)	also measured
CC[C@H](C)[C@H](NC(=O)[C@H](Cc1c[nH]c2ccccc12)NC(=O)[C@H](CCCCN)NC(=O)[C@@H](NC(=O)[C@H](CC(C)C)NC(=O)[C@H](CO)NC(=O)[C@H](CCCCN)NC(=O)CN)C(C)C)C(=O)N[C@H](C(=O)N[C@@H](CCCCN)C(=O)N[C@@H](CO)C(=O)N[C@H](C(=O)N[C@@H](CCCN=C(N)N)C(=O)N[C@@H](CCCCN)C(=O)N[C@@H](C)C(N)=O)C(C)C)C(C)C [GKSLVKWIVKSVRKA]	–	–	–	–	> 25 µM	> 25 µM	25 µM (≈ 42.5 µg/mL)	MIC [1]: > 25 µM; MIC [4]: > 25 µM
CC(C)C[C@H](NC(=O)CNC(=O)[C@@H]1CCCN1C(=O)[C@H](CCCCN)NC(=O)[C@H](CCCCN)NC(=O)[C@@H]1CCCN1C(=O)[C@H](CCCN=C(N)N)NC(=O)[C@H](CC(=O)O)NC(=O)[C@@H](N)CCCCN)C(=O)N[C@@H](CS)C(=O)N1CCC[C@H]1C(=O)N[C@@H](C)C(=O)N[C@@H](C)C(=O)N[C@@H](CCCCN)C(=O)N[C@@H](CCCCN)C(=O)N[C@@H](C)C(=O)N[C@@H](C)C(=O)N[C@@H](C)C(=O)N[C@@H](C)C(=O)N[C@@H](CCCCN)C(=O)N[C@@H](C)C(N)=O [KDRPKKPGLCPAAKKAAAAKA]	118 µM (≈ 250 µg/mL)	58.9 µM (≈ 125 µg/mL)	> 236 µM	236 µM (≈ 500 µg/mL)	14.7 µM (≈ 31.2 µg/mL)	118 µM (≈ 250 µg/mL)	–	MIC [5]: 29.5 µM (≈ 62.5 µg/mL)
CC[C@H](C)[C@H](NC(=O)[C@H](CCCN=C(N)N)NC(=O)[C@@H](NC(=O)[C@@H](NC(=O)[C@@H]1CCCN1C(=O)[C@@H](NC(=O)[C@@H](NC(=O)[C@@H](NC(=O)[C@@H]1CCCN1C(=O)CNC(=O)CNC(=O)[C@H](CCCCN)NC(=O)[C@H](CCCCN)NC(=O)[C@H](Cc1c[nH]c2ccccc12)NC(=O)[C@H](C)NC(=O)[C@H](CCCN=C(N)N)NC(=O)[C@H](CC(C)C)NC(=O)[C@@H](NC(=O)[C@H](CCCCN)NC(=O)[C@H](CCCN=C(N)N)NC(=O)CNC(=O)[C@H](CC(C)C)NC(=O)[C@H](CCCCN)NC(=O)[C@H](CCCN=C(N)N)NC(=O)[C@H](CC(C)C)NC(=O)CNC(=O)[C@@H](N)CCCCN)[C@@H](C)CC)[C@@H](C)CC)[C@@H](C)CC)C(C)C)[C@@H](C)CC)[C@@H](C)CC)C(=O)O [KGLRKLGRKILRAWKKGGPIIVPIIRI]	–	–	–	–	–	–	3.25 µM (≈ 10 µg/mL)	MIC [6]: 2.3 µM (≈ 7.07 µg/mL)
CC[C@H](C)[C@H](NC(=O)[C@H](CC(C)C)NC(=O)[C@H](Cc1cnc[nH]1)NC(=O)[C@@H](NC(=O)[C@@H](NC(=O)[C@@H](NC(=O)CNC(=O)[C@H](CC(C)C)NC(=O)[C@H](C)NC(=O)[C@H](C)NC(=O)[C@H](CCCCN)NC(=O)CNC(=O)[C@@H](NC(=O)[C@H](Cc1cnc[nH]1)NC(=O)[C@H](CCCCN)NC(=O)[C@@H](NC(=O)[C@@H](NC(=O)[C@H](CC(=O)O)NC(=O)[C@H](CC(C)C)NC(=O)[C@H](Cc1ccccc1)NC(=O)CN)C(C)C)[C@@H](C)CC)C(C)C)C(C)C)C(C)C)[C@@H](C)O)C(=O)N[C@@H](CC(N)=O)C(=O)N[C@@H](CCC(N)=O)C(N)=O [GFLDVIKHVGKAALGVVTHLINQ]	6.58 µM (≈ 16 µg/mL)	–	26.3 µM (≈ 64 µg/mL)	13.2 µM (≈ 32 µg/mL)	–	–	–	–
CC(C)C[C@H](NC(=O)CNC(=O)[C@H](C)NC(=O)[C@H](CC(C)C)NC(=O)[C@H](CCCCN)NC(=O)[C@H](CCCCN)NC(=O)[C@H](C)NC(=O)[C@H](CC(C)C)NC(=O)CNC(=O)[C@H](C)NC(=O)[C@H](Cc1c[nH]c2ccccc12)NC(=O)[C@H](CCCCN)NC(=O)[C@H](CCCCN)NC(=O)[C@H](C)NC(=O)[C@H](CC(C)C)NC(=O)CNC(=O)[C@H](C)NC(=O)[C@H](CC(C)C)NC(=O)[C@@H](N)CCCCN)C(=O)N[C@@H](C)C(=O)N[C@@H](CCCCN)C(N)=O [KLAGLAKKWAGLAKKLAGLAK]	7.49 µM (≈ 16 µg/mL)	7.49 µM (≈ 16 µg/mL)	3.74 µM (≈ 8 µg/mL)	–	–	–	–	–

More lines, main results first:

MIC (Staphylococcus aureus)	MIC (Pseudomonas aeruginosa)	MIC (Escherichia coli)	MIC (Candida albicans)	MIC [2]	MIC [3]	MIC (Acinetobacter baumannii)	SMILES	also measured
> 120 µM	> 120 µM	> 120 µM	–	–	–	–	CC(C)C[C@H](NC(=O)CNC(=O)[C@H](C)NC(=O)[C@H](CC(C)C)NC(=O)[C@H](CCCCN)NC(=O)[C@H](C)NC(=O)[C@H](CCCCN)NC(=O)[C@H](CC(C)C)NC(=O)CNC(=O)[C@H](C)NC(=O)[C@H](Cc1c[nH]c2ccccc12)NC(=O)[C@H](CCCCN)NC(=O)[C@H](C)NC(=O)[C@H](CCCCN)NC(=O)[C@H](CC(C)C)NC(=O)CNC(=O)[C@H](C)NC(=O)[C@H](CC(C)C)NC(=O)[C@@H](N)CCCCN)C(=O)N[C@@H](CCCCN)C(=O)N[C@@H](C)C(N)=O [KLAGLKAKWAGLKAKLAGLKA]	–
–	> 20.5 µM	–	–	–	–	–	CC[C@H](C)[C@H](NC(=O)[C@H](Cc1ccccc1)NC(=O)[C@H](CO)NC(=O)[C@H](CCCCN)NC(=O)[C@H](Cc1c[nH]c2ccccc12)NC(=O)[C@@H](N)CCCCN)C(=O)N[C@@H](CCCCN)C(=O)N[C@@H](CCCCN)C(=O)N[C@@H](CC(C)C)C(=O)N[C@H](C(=O)N[C@@H](CO)C(=O)N[C@@H](CCCCN)C(=O)N[C@@H](CCCCN)C(=O)N[C@@H](CC(C)C)C(=O)N[C@@H](Cc1cnc[nH]1)C(=O)N[C@@H](CO)C(=O)N[C@@H](C)C(=O)N[C@@H](CCCCN)C(=O)N[C@@H](CCCCN)C(=O)N[C@@H](Cc1ccccc1)C(N)=O)[C@@H](C)O [KWKSFIKKLTSKKLHSAKKF]	–
> 200 µM	–	200 µM (≈ 544 µg/mL)	> 200 µM	–	–	–	CC[C@H](C)[C@H](NC(=O)[C@H](CCCCN)NC(=O)[C@H](CS)NC(=O)[C@H](C)NC(=O)[C@@H](NC(=O)[C@H](Cc1ccccc1)NC(=O)CNC(=O)[C@H](CC(C)C)NC(=O)CNC(=O)[C@@H](NC(=O)[C@H](CCCCN)NC(=O)[C@H](CCCCN)NC(=O)[C@H](CC(C)C)NC(=O)[C@H](CC(N)=O)NC(=O)[C@H](CCCCN)NC(=O)[C@H](CC(C)C)NC(=O)[C@@H](NC(=O)[C@H](CO)NC(=O)[C@H](CC(C)C)NC(=O)[C@H](CCSC)NC(=O)[C@@H](N)CO)C(C)C)C(C)C)C(C)C)C(=O)N[C@@H](CC(N)=O)C(=O)N[C@@H](CCCCN)C(=O)N[C@@H](CCC(N)=O)C(=O)N[C@@H](CS)C(=O)O [SMLSVLKNLKKVGLGFVACKINKQC]	–
–	2.09 µM (≈ 4 µg/mL)	–	–	–	–	–	CSCC[C@H](NC(=O)[C@@H](NC(=O)[C@H](CCCN=C(N)N)NC(=O)[C@H](Cc1ccccc1)NC(=O)[C@H](C)NC(=O)[C@H](C)NC(=O)[C@H](CCCCN)NC(=O)[C@H](CCCN=C(N)N)NC(=O)[C@H](Cc1c[nH]c2ccccc12)NC(=O)[C@H](C)NC(=O)[C@@H]1CCCN1C(=O)[C@@H](N)CCCN=C(N)N)C(C)C)C(=O)N[C@@H](CCCN=C(N)N)C(=O)N[C@@H](C)C(=O)N[C@@H](CS)C(=O)N[C@H](C(N)=O)C(C)C [RPAWRKAAFRVMRACV]	–
–	–	–	–	> 25 µM	> 25 µM	25 µM (≈ 42.8 µg/mL)	CC[C@H](C)[C@H](NC(=O)[C@H](CC(C)C)NC(=O)[C@H](CCC(N)=O)NC(=O)[C@@H](NC(=O)[C@H](CC(C)C)NC(=O)[C@H](CCCN=C(N)N)NC(=O)[C@H](CCCN=C(N)N)NC(=O)[C@@H](NC(=O)[C@H](C)NC(=O)[C@H](CCCCN)NC(=O)[C@H](CCCN=C(N)N)NC(=O)[C@@H](N)CC(C)C)[C@@H](C)O)C(C)C)C(=O)N[C@H](C(=O)N[C@@H](CO)C(=O)NCC(=O)O)C(C)C [LRKATRRLVQLIVSG]	MIC [1]: > 25 µM; MIC [4]: > 25 µM
